From patent US20240294572A1, “Antimicrobial Peptides” (priority 2021, published 2024) come the findings set out here.

For data set [1], the system named is S. aureus USA300 transposon mutant SAUSA300_1465. Nature of the data set: Antimicrobial susceptibility of transposon mutant. Type of data set: cell-based. Also on record: key: No = no MIC changes of C10-KR8d against the WT and the mutant S. aureus strains measured in 50% TSB. Conditions: mutant SAUSA300_1465 versus WT. How it is done: (§1) The antimicrobial susceptibility of over 20 MRSA transposon mutants were also tested, based on a transposon library screening, in the presence of LL-37 peptides (Golla, et al. (2020) ACS Infect. Dis., 6:1866-1881). This Nebraska Transposon Mutant Library of S. aureus USA300 consists of 1920 mutants, each with one nonessential gene disabled due to a transposon insertion (Fey, et al. (2013) mBio 4:e00537-12). The correct insertion of the transposon to each Staph mutant had been verified (Golla, et al. (2020) ACS Infect. Dis., 6:1866-1881). Antimicrobial susceptibility to the new peptide C10-KR8d was evaluated in the same manner as MIC assays. Susceptible strains could be inhibited at a peptide concentration lower than the MIC against the wild strain S. aureus JE2.

The subject of data set [2] is S. aureus USA300 transposon mutant SAUSA300_1867. Nature of the data set: Antimicrobial susceptibility of transposon mutant. Particulars: mutant SAUSA300_1867 versus WT. Also on record: key: No = no MIC changes of C10-KR8d against the WT and the mutant S. aureus strains measured in 50% TSB. The format is cell-based. How it is done:
as §1

Data set [3] has as its system S. aureus USA300 transposon mutant SAUSA300_1097 (pyrF). Nature of the data set: Antimicrobial susceptibility of transposon mutant. The format is cell-based. Set-up: key: No = no MIC changes of C10-KR8d against the WT and the mutant S. aureus strains measured in 50% TSB. Particulars: mutant SAUSA300_1097 pyrF versus WT. How it is done: as §1
Data set [4] relates to S. aureus USA300 transposon mutant SAUSA300_1503. Nature of the data set: Antimicrobial susceptibility of transposon mutant. The format is cell-based. Also on record: key: No = no MIC changes of C10-KR8d against the WT and the mutant S. aureus strains measured in 50% TSB. Conditions: mutant SAUSA300_1503 versus WT. How it is done:
as §1

Data set [5] has as its system S. aureus USA300 transposon mutant SAUSA300_1898. Nature of the data set: Antimicrobial susceptibility of transposon mutant. Particulars: mutant SAUSA300_1898 versus WT. The format is cell-based. Set-up: key: No = no MIC changes of C10-KR8d against the WT and the mutant S. aureus strains measured in 50% TSB. How it is done:
as §1

Data set [6] relates to S. aureus USA300 transposon mutant SAUSA300_0186 (argC). Nature of the data set: Antimicrobial susceptibility of transposon mutant. The format is cell-based. Set-up: key: No = no MIC changes of C10-KR8d against the WT and the mutant S. aureus strains measured in 50% TSB. Conditions: mutant SAUSA300_0186 argC versus WT. How it is done: as §1
In data set [7] the test system is S. aureus USA300 transposon mutant SAUSA300_1967. Nature of the data set: Antimicrobial susceptibility of transposon mutant. Type of data set: cell-based. Particulars: mutant SAUSA300_1967 versus WT. Also on record: key: No = no MIC changes of C10-KR8d against the WT and the mutant S. aureus strains measured in 50% TSB. How it is done:
as §1

The subject of data set [8] is S. aureus USA300 transposon mutant SAUSA300_1336. Nature of the data set: Antimicrobial susceptibility of transposon mutant. The format is cell-based. Also on record: key: No = no MIC changes of C10-KR8d against the WT and the mutant S. aureus strains measured in 50% TSB. Particulars: mutant SAUSA300_1336 versus WT. How it is done: as §1
For data set [9], the system named is S. aureus USA300 transposon mutant SAUSA300_0394. Nature of the data set: Antimicrobial susceptibility of transposon mutant. Type of data set: cell-based. Set-up: key: No = no MIC changes of C10-KR8d against the WT and the mutant S. aureus strains measured in 50% TSB. Particulars: mutant SAUSA300_0394 versus WT. How it is done: as §1
Data set [10] deals with S. aureus USA300 transposon mutant SAUSA300_0829 (lipA). Nature of the data set: Antimicrobial susceptibility of transposon mutant. Conditions: mutant SAUSA300_0829 lipA versus WT. The format is cell-based. Also on record: key: No = no MIC changes of C10-KR8d against the WT and the mutant S. aureus strains measured in 50% TSB. How it is done:
as §1

The subject of a further data set is S. aureus USA300. Nature of the data set: Bacterial membrane depolarization (DiBAC4(3)). Type of data set: cell-based. Conditions: 3.1, 6.25, 12.5, and 25 μM; 40 minutes. How it is done:
The experiment was conducted as described (Marks, et al. (2013) PLOS One 8:e63158). In brief, an overnight culture of S. aureus USA300 was subcultured in a fresh TSB medium and grown to the exponential phase. Cells were spun using centrifugation, washed 2× with PBS, resuspended in twice the volume of PBS containing 25 mM glucose, and incubated at 37° C. for 15 minute. For membrane depolarization measurements, 500 nM (final concentration) of the dye DiBAC4 (3) bis(1,3-dibutylbarbituric acid) trimethine oxonol (ANASPEC, CA) was added, and the reaction mixture was vortexed gently. Aliquots of 90 μL of the energized bacteria solution were loaded to the wells, and the plate was fed into a FLUOstar® Omega microplate reader. Fluorescence was read for 20 minutes at excitation and emission wavelengths of 485 and 520 nm, respectively, to get dye normalization. Then, 10 μL of the peptide solution was added and gently mixed. Fluorescence readings were recorded for 40 minutes, where Triton™ X-100 (0.1%) was used as a positive control.

The next data set relates to HaCaT cells. Type of data set: cell-based, human. How it is done: Peptides were assessed for potential cytotoxicity using HaCaT cells (Addexbio Technologies, CA). Briefly, cells were seeded at a density of 1×10^4 per well in a tissue culture 96-well plate. DMEM was supplemented with 10% fetal bovine serum (FBS) and incubated at 37° C. in a 5% CO2 atmosphere for 24 hours. Culture medium was aspirated and replaced with fresh serum free media. Cells were exposed to different concentrations of peptides for 1 hour at 37° C. in a 5% CO2 atmosphere. Post-incubation, the cells were washed and incubated with 100 μL of DMEM media containing 20 μL of MTS reagent for 2 hours at 37° C. Absorbance was read at 492 nm using a ChroMate® microplate reader (Awareness Technology, FL).

Non-standard residues stand in square brackets, D forms with d. Residues, ends and D or L forms follow the SMILES beside them. *: point of attachment. Decanoyl = CCCCCCCCCC(=O)*

As to `CCCCCCCCCC(=O)N[C@H](CCCCN)C(=O)N[C@H](CCCNC(=N)N)C(=O)N[C@@H](C(=O)N[C@H](Cc1c[nH]c2ccccc12)C(=O)N[C@H](CCC(N)=O)C(=O)N[C@H](CCCNC(=N)N)C(=O)N[C@@H](C(=O)N[C@H](CCCCN)C(N)=O)[C@H](C)CC)[C@H](C)CC` [Peptide C10-KR8d] (Decanoyl-[dK][dR][dI][dW][dQ][dR][dI][dK]-NH2), the “Susceptible?” value in data set [1], in [2], in data set [3], in [4], in data set [5] and in data set [6] was “No” in each case. Moreover, the “Susceptible?” value in data set [7], in data set [8], in data set [9] and in [10] was “No” each time. In addition, in the data set with S. aureus USA300, the “membrane depolarization ability (order)” value was “Triton™ X-100>17BIPHE2>C10-KR8d>daptomycin”. Besides, the “relative toxicity to HaCaT cells” value in the data set with HaCaT cells is listed as “slightly more toxic than C10-KR8”.
